Experimental data published in ChEMBL document CHEMBL1201862, “PubChem BioAssay data set” (2004).
The source made the active and inactive calls. Cut-off read from the data, not from the text of the source, for most assays here: actives have a measured IC50 and inactives only a lower limit.

Tests used:
Format in all cases: functional
[1] = target: T1, Sentrin-specific protease 7 (Homo sapiens, UniProt Q9BQF6); experiment: inhibition of human SENP7 cleavage activity – biochemical, luminescence, SAR follow-up (AID 504497)
T1 sequence (Q9BQF6 whole entry): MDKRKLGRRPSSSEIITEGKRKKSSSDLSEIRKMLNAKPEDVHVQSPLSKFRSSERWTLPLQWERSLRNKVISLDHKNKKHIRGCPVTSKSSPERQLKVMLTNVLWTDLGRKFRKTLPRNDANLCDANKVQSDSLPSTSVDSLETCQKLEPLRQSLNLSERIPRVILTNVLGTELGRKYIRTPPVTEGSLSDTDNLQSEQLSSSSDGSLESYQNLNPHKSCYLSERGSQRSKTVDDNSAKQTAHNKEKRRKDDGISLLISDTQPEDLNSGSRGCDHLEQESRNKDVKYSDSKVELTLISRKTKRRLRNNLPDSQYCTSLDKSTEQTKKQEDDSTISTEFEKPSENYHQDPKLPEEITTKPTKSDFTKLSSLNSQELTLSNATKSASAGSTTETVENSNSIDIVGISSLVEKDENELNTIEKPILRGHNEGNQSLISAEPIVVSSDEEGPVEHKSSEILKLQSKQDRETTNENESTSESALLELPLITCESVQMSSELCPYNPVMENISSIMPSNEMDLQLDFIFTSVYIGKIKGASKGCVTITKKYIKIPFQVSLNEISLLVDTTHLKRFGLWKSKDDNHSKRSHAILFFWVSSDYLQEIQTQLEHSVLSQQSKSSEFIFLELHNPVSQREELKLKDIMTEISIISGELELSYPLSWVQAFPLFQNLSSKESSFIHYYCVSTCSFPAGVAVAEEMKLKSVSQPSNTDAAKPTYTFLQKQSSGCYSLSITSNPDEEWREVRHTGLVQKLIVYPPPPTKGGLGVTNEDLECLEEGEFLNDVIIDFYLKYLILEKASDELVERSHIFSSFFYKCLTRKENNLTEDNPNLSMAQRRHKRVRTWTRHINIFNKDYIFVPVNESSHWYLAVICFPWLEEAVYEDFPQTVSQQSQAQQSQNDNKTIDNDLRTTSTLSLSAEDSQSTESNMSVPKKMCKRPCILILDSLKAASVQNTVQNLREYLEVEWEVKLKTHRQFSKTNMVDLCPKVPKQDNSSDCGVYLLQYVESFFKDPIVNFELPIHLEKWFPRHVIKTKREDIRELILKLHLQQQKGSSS

[2] = target: T2, Sentrin-specific protease 8 (Homo sapiens, UniProt Q96LD8); experiment: inhibition of human SENP8 cleavage activity – biochemical, luminescence, SAR follow-up (AID 504501)
T2 sequence (Q96LD8 whole entry): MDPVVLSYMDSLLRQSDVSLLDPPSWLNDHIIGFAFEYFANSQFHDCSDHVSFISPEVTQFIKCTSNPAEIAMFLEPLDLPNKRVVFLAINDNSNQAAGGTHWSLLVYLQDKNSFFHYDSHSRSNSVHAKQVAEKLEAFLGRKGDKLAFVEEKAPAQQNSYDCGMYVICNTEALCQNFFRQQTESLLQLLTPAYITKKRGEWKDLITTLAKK

[3] = target: T3, Sentrin-specific protease 6 (Homo sapiens, UniProt Q9GZR1); experiment: SAR Analysis of small molecule inhibitors of Sentrin-specific protease 6 (SENP6) using a Luminescent assay. [Related pubchem assays (depositor defined):AID2582, AID2599]
T3 sequence (Q9GZR1 whole entry): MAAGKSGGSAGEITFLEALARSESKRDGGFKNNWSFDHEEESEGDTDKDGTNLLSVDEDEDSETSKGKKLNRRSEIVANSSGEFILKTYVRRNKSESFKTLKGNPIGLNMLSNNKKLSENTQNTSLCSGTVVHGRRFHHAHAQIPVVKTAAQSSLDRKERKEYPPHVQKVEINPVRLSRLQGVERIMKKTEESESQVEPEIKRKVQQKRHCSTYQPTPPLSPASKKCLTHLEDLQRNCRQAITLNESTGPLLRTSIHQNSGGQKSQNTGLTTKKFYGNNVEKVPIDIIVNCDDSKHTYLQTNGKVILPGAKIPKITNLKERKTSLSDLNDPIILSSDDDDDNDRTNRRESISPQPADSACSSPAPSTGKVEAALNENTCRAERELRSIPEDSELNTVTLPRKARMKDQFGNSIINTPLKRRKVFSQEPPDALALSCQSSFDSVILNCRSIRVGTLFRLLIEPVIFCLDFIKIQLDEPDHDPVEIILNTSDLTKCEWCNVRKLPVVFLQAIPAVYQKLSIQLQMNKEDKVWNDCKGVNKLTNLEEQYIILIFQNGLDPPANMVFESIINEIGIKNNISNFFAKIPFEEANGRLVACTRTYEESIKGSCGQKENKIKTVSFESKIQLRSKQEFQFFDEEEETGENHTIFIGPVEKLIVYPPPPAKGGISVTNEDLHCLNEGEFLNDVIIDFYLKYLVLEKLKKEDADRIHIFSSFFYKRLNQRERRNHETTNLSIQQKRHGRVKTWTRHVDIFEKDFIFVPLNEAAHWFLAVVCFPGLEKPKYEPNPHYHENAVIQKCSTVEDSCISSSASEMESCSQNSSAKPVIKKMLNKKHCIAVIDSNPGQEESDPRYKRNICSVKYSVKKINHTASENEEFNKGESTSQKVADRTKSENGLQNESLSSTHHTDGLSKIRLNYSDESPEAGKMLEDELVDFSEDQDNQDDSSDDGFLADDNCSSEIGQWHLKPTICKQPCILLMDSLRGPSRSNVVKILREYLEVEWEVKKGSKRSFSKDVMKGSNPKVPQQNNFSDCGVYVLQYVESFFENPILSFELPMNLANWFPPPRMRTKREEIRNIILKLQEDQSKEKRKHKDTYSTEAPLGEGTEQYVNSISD

Caspase-3 [4] = target: T4, Caspase-3 (Homo sapiens, UniProt P42574); experiment: SAR Analysis of small molecule inhibitors of Sentrin-specific proteases (SENPs) using a Caspase-3 Selectivity assay. [Related pubchem assays (depositor defined):AID2540, AID2599, AID434973, AID489001]
T4 sequence (P42574 whole entry): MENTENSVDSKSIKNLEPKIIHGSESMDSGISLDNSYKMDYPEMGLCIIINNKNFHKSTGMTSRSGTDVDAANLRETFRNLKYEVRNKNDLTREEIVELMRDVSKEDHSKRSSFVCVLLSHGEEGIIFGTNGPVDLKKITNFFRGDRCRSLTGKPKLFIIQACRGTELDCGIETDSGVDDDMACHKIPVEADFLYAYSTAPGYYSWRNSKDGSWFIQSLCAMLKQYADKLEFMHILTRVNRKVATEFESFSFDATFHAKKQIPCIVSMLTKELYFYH

Cysteine protease ATG4B = Cysteine protease ATG4B (Homo sapiens, UniProt Q9Y4P1);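 note: Fluorescence-based dose-response confirmation assay measuring inhibition of ATG4B activity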
Phospholipase A2 = Phospholipase A2 (Homo sapiens, UniProt P04054);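 note: confirmatory dose-response counterscreen on phospholipase A2, testing hits that came from an ultra-high-throughput screen for ATG4B inhibitors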
[5] = target: T2, Sentrin-specific protease 8; experiment: inhibition of sentrin protease 8 – biochemical, luminescence, set 2, SAR follow-up (AID 588601)
[6] = target: T3, Sentrin-specific protease 6; experiment: inhibition of human SENP6 catalytic domain – biochemical, luminescence, set 2, SAR follow-up (AID 588598)
[7] = target: T1, Sentrin-specific protease 7; experiment: inhibition of human SENP7 cleavage activity – biochemical, luminescence, set 2, SAR follow-up (AID 588600)
Caspase-3 [8] = target: T4, Caspase-3; experiment: inhibition of recombinant caspase-3 activity – biochemical, luminescence, set 2, selectivity assay for SENP protease inhibitor project, SAR follow-up (AID 588599)

Chain of Phospholipase A2 (P04054 whole entry): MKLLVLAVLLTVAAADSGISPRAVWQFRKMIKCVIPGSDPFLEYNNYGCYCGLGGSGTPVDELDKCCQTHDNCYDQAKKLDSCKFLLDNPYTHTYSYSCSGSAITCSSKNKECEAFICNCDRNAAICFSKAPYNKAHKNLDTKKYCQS
Chain of Cysteine protease ATG4B (Q9Y4P1 whole entry): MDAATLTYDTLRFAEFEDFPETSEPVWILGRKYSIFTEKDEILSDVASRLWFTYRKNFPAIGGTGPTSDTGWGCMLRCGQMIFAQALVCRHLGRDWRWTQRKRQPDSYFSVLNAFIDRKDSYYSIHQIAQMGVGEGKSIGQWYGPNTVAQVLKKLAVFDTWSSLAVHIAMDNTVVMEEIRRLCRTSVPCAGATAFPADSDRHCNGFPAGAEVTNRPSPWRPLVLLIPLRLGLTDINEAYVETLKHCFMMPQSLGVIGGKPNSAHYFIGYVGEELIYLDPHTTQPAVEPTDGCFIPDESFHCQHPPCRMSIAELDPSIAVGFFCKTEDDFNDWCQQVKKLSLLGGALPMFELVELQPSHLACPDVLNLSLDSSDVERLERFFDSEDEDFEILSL

Question: What does the source list for `CC(C)C(=O)Nc1ccc(-c2nc3cc(Cl)ccc3o2)cc1`?
Answer: IC50 [1]: 2.66 µM (active); IC50 [2]: > 99 µM (inactive); IC50 [3]: > 99 µM (inactive); IC50 (Caspase-3 [4]): 23.7 µM (active)

Question: What does the source list for `O=C(c1ccc(OC2CCN(C/C=C/c3ccc(F)cc3)CC2)cc1)N1CCCC1`?
Answer: IC50 (Cysteine protease ATG4B): 11.8 µM (active); IC50 (Phospholipase A2): 7.22 µM (active)

Question: For `O=C(NCC[S+]([O-])c1c(-c2ccc(F)cc2)[nH]c2ccccc12)C(=O)c1c[nH]c2ccccc12` (stereo not given), which IC50 [5] is on record?
Answer: 84 µM (active)

Question: And the IC50 [6]?
Answer: 94.5 µM (active)

Question: And the IC50 [7]?
Answer: 88.8 µM (active)

Question: What about the IC50 (Caspase-3 [8]) of the same compound?
Answer: 50.7 µM (active)
